Assay results reported in ChEMBL document CHEMBL1201862, “PubChem BioAssay data set” (2004).
Activity calls are given as the source filed them.

How the values were obtained:
[1] = viability of HCT116 lacking mutant beta-catenin – cell-based, human colon tumor, dose response (AID 1045); assay type: functional;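 further: HCT116 colon tumor cells with beta catenin knocked out; cells exposed to compound for 60 hours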
[2] = viability of PTEN-deleted HCT116 cells – cell-based, HCT116 PTEN knockout, dose response (AID 1047); assay type: functional;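 further: HCT116 colon tumor cells with PTEN knocked out; cells exposed to compound for 60 hours before readout; potency for loss of cell viability measured by luminescence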
[3] = microbe, parasite or virus in culture; assay type: functional; details: Mycobacterium tuberculosis
H9c2 = experiment: cells; assay type: functional, cell-based; details: Rattus norvegicus, H9c2, Myocardium;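 further: confirmatory concentration-response retest of ultra-high-throughput screening hits for modulation of myocardial damage; cell death induced by hydrogen peroxide oxidative stress; compound pretreatment for 60 min then peroxide exposure for 2 h; potency is for protecting the cells against peroxide damage rather than for killing them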
[4] = target: Glucose-6-phosphate 1-dehydrogenase (Homo sapiens, UniProt P11413); experiment: inhibition of Homo sapiens G6PD, dose series – biochemical, fluorescence, selectivity assay for P. falciparum G6PD inhibitor project, dose response (AID 504792); assay type: functional
[5] = loss of viability in HepG2 cells – cell-based, CellTiter-Glo, cherry-picked, cytotoxicity control for Shn3 inhibitor project, dose response (AID 624134); assay type: functional
[6] = reduction of Shn3 3'UTR-driven luciferase in osteoblasts – cell-based, Clone20 osteoblasts, firefly luciferase, cherry-picked, dose response (AID 624132); assay type: functional;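 further: firefly luciferase luminescence from reporter carrying the Shn3 3'UTR in osteoblasts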
[7] = non-specific 3'UTR reporter inhibition in Clone20-Shn3RL – cell-based, Renilla luciferase, cherry-picked, counter-screen for Shn3 inhibitor project, dose response (AID 624133); assay type: functional
INS1 = experiment: INS-1E survival protection against cytokine death – cell-based, luminescence, retest, dose response (AID 449756); assay type: functional; details: Rattus norvegicus;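 further: cell death triggered by IL-1 beta plus TNF-alpha plus IFN-gamma mixture; protective hits raise ATP signal compared with cytokine alone wells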
[8] = target: FAD-linked sulfhydryl oxidase ALR (Homo sapiens, UniProt P55789); experiment: ALR-catalysed DTT oxidation blockers – biochemical, H2O2 detection, luminescence, cherry-pick, dose response (AID 493248)
[9] = target: T1, Polyadenylate-binding protein 1 (Homo sapiens, UniProt P11940); experiment: MLLE binding blockers, Cy5 peptide tracer – biochemical, fluorescence polarization, Cy5-PAM2 peptide, secondary, miRNA deadenylation inhibitor project, dose response (AID 602260); assay type: functional; details: read-out: IC50_Mean
[10] = target: T1, Polyadenylate-binding protein 1; experiment: MLLE domain peptide-binding blockers, IC50 – biochemical, fluorescence polarization, FITC-PAM2 peptide, dose response (AID 602259); assay type: functional; details: read-out: IC50_Mean
[11] = target: T2, Rac GTPase-activating protein 1 (Homo sapiens, UniProt Q9H0H5); experiment: blockers of MgcRacGAP-driven Rac1 GTP hydrolysis – biochemical, ADP Hunter fluorescence, primary and confirmatory, confirmation (AID 624330); assay type: functional
T2 sequence (Q9H0H5 whole entry): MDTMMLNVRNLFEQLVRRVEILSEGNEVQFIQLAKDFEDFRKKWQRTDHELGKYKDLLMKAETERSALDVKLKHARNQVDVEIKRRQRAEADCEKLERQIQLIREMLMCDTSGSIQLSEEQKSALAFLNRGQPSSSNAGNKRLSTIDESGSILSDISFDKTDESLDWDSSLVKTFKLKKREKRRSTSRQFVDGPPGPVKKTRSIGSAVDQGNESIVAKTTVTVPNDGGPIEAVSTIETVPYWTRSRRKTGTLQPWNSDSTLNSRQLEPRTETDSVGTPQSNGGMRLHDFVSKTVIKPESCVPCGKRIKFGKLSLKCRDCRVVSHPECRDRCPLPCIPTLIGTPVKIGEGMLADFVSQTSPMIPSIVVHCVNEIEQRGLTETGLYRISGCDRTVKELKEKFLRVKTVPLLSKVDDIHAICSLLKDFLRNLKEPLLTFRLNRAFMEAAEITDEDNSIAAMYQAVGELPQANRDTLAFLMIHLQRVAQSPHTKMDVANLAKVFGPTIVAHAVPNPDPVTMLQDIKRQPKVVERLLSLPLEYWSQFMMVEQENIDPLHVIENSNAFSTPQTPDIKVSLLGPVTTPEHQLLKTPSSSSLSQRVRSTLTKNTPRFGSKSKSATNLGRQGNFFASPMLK

SN12K1 = experiment: cells; assay type: functional; details: Homo sapiens
P388/ADR = experiment: cells; assay type: functional; details: Mus musculus
P388 = experiment: cells; assay type: functional; details: Mus musculus
Caspase-6 = target: T3, Caspase-6 (Homo sapiens, UniProt P55212); experiment: inhibition of CASP6 peptide cleavage – biochemical, VEID-R110 fluorescence, cherry-pick, dose response (AID 720632)
T3 sequence (P55212 whole entry): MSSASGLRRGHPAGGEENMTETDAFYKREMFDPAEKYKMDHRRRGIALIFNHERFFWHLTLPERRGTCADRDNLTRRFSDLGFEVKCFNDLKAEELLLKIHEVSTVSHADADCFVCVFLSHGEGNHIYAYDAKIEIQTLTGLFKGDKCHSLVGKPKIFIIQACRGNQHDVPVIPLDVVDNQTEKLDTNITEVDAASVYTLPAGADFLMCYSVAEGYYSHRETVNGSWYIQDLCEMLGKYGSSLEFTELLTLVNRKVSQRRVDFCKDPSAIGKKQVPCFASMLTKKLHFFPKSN

[12] = blockers of HIV-1 envelope-mediated cell-cell fusion – cherry-pick, dose response (AID 652057); assay type: functional, cell-based
Genome polyprotein = Genome polyprotein (dengue virus type 2, UniProt P29990); experiment: flavivirus cap methylation enzyme inhibition – biochemical, confirmation dose response, primary screen (AID 588689); assay type: functional
Cytochrome P450 2C9 = Cytochrome P450 2C9 (Homo sapiens, UniProt P11712)
Cytochrome P450 3A4 = Cytochrome P450 3A4 (Homo sapiens, UniProt P08684);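 further: CYP3A4 tested as one member of a cytochrome P450 panel screen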
Sequence of Cytochrome P450 3A4 (P08684 whole entry): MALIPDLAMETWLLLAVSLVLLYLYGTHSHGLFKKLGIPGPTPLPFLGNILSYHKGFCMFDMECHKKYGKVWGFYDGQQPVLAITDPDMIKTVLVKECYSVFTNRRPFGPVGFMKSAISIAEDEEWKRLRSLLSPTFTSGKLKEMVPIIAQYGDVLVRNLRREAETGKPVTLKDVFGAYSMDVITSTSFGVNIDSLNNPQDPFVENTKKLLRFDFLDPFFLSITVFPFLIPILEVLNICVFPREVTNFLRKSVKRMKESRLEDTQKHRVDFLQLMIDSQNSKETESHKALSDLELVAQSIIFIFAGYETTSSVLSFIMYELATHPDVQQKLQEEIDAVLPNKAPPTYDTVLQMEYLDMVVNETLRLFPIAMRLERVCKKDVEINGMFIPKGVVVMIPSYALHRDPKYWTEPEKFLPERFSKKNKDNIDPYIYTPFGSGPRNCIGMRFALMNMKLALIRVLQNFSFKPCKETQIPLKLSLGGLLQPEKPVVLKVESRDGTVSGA

T1 sequence (P11940 whole entry, the tested form may be a part): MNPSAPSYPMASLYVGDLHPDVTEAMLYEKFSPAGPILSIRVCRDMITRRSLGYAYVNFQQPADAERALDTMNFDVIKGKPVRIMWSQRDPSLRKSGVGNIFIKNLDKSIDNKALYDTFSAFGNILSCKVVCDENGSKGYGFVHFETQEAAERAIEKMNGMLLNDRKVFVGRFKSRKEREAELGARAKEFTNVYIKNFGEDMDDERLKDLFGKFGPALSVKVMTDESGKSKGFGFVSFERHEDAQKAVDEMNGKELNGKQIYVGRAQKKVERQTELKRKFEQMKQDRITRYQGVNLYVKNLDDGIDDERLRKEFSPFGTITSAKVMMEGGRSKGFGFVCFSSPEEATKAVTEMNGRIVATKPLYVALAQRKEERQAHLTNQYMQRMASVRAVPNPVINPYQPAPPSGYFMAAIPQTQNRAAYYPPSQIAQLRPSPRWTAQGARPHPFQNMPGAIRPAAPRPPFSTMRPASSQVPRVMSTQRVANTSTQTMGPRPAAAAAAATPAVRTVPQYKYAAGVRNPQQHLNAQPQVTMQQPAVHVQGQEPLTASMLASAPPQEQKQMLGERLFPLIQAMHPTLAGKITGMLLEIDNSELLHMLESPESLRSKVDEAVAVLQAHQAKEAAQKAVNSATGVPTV
Sequence of Glucose-6-phosphate 1-dehydrogenase (P11413 whole entry): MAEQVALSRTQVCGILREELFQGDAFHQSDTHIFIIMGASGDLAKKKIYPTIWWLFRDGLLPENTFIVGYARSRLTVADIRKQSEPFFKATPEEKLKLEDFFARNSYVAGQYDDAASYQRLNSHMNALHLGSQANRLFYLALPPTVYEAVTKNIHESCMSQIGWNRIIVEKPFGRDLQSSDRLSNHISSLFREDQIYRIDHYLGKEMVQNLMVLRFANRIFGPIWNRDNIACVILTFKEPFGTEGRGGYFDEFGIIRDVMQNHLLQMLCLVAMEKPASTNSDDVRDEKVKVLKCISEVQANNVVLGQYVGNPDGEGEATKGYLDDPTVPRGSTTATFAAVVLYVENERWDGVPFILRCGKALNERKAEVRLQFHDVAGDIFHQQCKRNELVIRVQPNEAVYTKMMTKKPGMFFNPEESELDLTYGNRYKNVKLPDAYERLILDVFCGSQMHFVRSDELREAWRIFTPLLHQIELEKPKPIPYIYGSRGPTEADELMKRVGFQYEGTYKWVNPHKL
Sequence of FAD-linked sulfhydryl oxidase ALR (P55789 whole entry): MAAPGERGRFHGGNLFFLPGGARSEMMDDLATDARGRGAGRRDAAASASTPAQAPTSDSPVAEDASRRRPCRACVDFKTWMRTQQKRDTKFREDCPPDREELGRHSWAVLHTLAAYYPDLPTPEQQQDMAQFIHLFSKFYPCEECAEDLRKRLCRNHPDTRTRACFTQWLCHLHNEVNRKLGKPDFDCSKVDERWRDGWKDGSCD
Sequence of Cytochrome P450 2C9 (P11712 whole entry): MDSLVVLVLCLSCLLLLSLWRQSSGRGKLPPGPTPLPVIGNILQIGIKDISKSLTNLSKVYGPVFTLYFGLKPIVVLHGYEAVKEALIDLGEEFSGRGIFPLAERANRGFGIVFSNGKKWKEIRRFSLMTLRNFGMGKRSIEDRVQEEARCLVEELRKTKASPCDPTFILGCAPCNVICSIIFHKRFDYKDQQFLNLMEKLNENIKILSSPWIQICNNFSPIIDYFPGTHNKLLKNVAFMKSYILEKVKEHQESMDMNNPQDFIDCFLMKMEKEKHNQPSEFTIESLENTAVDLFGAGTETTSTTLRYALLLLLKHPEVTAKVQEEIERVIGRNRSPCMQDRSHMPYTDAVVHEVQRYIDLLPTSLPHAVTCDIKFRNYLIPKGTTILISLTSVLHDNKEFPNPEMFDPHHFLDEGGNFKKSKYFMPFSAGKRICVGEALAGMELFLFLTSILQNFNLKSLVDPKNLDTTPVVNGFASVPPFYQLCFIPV
Sequence of Genome polyprotein (P29990 2492-3391 limits assumed): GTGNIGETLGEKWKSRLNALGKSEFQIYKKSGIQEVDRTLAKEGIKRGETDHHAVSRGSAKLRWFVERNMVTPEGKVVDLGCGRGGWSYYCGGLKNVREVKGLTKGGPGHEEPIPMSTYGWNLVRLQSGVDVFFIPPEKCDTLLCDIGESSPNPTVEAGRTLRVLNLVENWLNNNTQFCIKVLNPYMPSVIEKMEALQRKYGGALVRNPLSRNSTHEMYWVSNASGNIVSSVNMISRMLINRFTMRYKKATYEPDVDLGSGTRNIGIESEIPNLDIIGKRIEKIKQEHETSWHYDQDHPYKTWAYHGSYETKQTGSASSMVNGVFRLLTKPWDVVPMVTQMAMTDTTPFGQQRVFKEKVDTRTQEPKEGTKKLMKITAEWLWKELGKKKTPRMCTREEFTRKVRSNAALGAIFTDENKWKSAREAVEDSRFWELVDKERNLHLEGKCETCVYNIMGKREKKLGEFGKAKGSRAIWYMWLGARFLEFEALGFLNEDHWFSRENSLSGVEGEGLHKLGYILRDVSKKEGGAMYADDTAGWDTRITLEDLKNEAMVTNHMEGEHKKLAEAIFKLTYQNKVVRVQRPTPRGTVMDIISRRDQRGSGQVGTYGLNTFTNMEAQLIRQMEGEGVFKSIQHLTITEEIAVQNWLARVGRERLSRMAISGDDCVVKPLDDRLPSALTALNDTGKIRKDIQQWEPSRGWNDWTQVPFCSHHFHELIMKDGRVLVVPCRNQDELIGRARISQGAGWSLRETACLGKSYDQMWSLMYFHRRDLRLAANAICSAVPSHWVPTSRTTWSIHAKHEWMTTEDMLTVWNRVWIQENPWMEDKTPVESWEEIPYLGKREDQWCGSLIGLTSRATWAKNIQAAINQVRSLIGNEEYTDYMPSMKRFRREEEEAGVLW

With `CSc1ccc(C2C(C#N)=C(N)Oc3cc4c(cc32)OCO4)cc1` (stereo not drawn) the EC50 [1] was 6.05 µM (active) and the EC50 [2] was 6.59 µM (active).
With `CSc1ncc(C(=O)Nc2ccc(Br)cn2)c(C)n1` the CC50 [3] was > 40 µM (active).
With `CC1Nc2ncnc(N3CCN(c4ccccc4)CC3)c2N(Cc2ccc(Br)cc2)C1=O` (stereo not drawn) the IC50 (H9c2) was > 79 µM (inactive) and the CC50 [3] was > 40 µM (active).
In the case of `[O-]/[N+](=C/c1cccnc1)c1ccc(Br)cc1`, the IC50 [4] is reported as 28.2 µM (inactive).
For `Fc1cc(F)c(F)c(SCCc2ccncc2)c1F`, the EC50 [1] was 30.7 µM (active) and the EC50 [2] was 29.7 µM (active).
With `CCc1nc(N2CCN(C(C)=O)CC2)c2c3c(sc2n1)CC(C(C)(C)C)CC3` (stereo not drawn) the AC50 [5] was 58.6 µM (active), the CC50 [3] was > 40 µM (active) and the AC50 [6] was 6.76 µM (active). For the same compound, the AC50 [7] was 11.3 µM (active) and the AC50 (INS1) was 3.36 µM (active).
In the case of `Nc1ccc(-c2ccc(N)c(C(=O)O)c2)cc1C(=O)O`, the AC50 [8] is reported as 2.38 µM (active).
For `CC(=O)Nc1ccc(C(=O)CSc2ncn(-c3ccccc3)n2)cc1`, the IC50 [9] was > 66 µM (inactive) and the IC50 [10] was > 66 µM (inactive).
For `Cc1ccc(S(=O)(=O)SC/C=C/CSS(=O)(=O)c2ccc(C)cc2)cc1`, the IC50 [4] was 59.5 µM (inactive).
For `Sc1ncc2cnccn12`, the IC50 [9] was > 66 µM (inactive), the IC50 [11] was 52.3 µM (active) and the IC50 [10] was > 66 µM (inactive).
For `COc1ccc(C2CC(c3sc(Nc4ccc(C)cc4)nc3C)=NN2)cc1` (stereo not drawn), the GI50 (SN12K1) was 14.9 µM (inactive), the GI50 (P388/ADR) was 4.99 µM (inactive) and the GI50 (P388) was 6.79 µM (inactive).
With `COc1cc(/C=N/Nc2ccc(Cl)nn2)cc(OC)c1O` the AC50 [8] was 0.005 µM (active).
In the case of `CCCCNc1nc(NCc2ccccc2)nc2ccccc12`, the AC50 (Caspase-6) is reported as 15.6 µM (active).
For `C[C@@H]1CN([C@@H](C)CO)C(=O)Cc2cc(NC(=O)c3ccncc3)ccc2O[C@H]1CN(C)Cc1ccc(Cl)c(Cl)c1`, the AC50 [12] was 30.4 µM (active).
With `C=C1C(=O)C[C@@]23CCC[C@@]12CC(OCOC)C3` (stereo partly drawn) the GI50 (SN12K1) was 1.84 µM (inactive), the GI50 (P388/ADR) was 0.531 µM (active) and the GI50 (P388) was 0.431 µM (active).
In the case of `COc1c(OC(C)=O)ccc(/C=N\NC(=O)c2ccc(Br)cc2)c1[N+](=O)[O-]`, the IC50 (Genome polyprotein) is reported as 96.5 µM (active).
For `COc1cc(NS(C)(=O)=O)ccc1Nc1c2ccccc2nc2ccccc12` [AMSACRINE], the GI50 (SN12K1) was 0.106 µM (active), the GI50 (P388/ADR) was 0.265 µM (active) and the GI50 (P388) was 0.0318 µM (active). The AC50 (Cytochrome P450 2C9) was “inconclusive” and the AC50 (Cytochrome P450 3A4) was 20 µM (inconclusive).
For `COc1cc(C[C@H]2c3cc(OC)c(OC)cc3CCN2C)c(Oc2cc3c(cc2OC)-c2c(OC)c(OC)cc4c2[C@H](C3)N(C)CC4)cc1OC` [THALICARPINE], the GI50 (SN12K1) was 7.93 µM (inactive), the GI50 (P388/ADR) was 8.51 µM (inactive) and the GI50 (P388) was 4.24 µM (inactive).
